Source: PMC9888480, “Carboranyl-1,8-naphthalimide intercalators induce lysosomal membrane permeabilization and ferroptosis in cancer cell lines” (Journal of Enzyme Inhibition and Medicinal Chemistry, 2023)
Read-outs that look alike come from different tables or passages of the source.

Experiments:
ct-DNA [1] = test: Melting temperature (Tm) measurements of ct-DNA; assay type: binding, calf; details: r = [compound]/[ct-DNA] = 0.3, cacodylate buffer pH 7.0; Tm of free ct-DNA 74 °C; error ±0.5 °C
Method: The measurements were carried out by adding aliquots of DMSO stock solution of the tested compounds to the buffer solution (pH 7.0, 20 mM, cacodylate buffer, DMSO content of the final solution = 0.33–0.39%). Tm curves were collected at r = 0.3 (r = [compound]/[ct-DNA]) to assure the dominant binding mode. Thermal melting curves were plotted considering the absorption change at 260 nm as a function of temperature using a GBC Cintra10 UV–VIS spectrometer (Dandenong, Australia) equipped with a GBC Thermocell Peltier Power Supply (Dandenong, Australia) with the use of a 1-cm-path-length cell. The absorbance of the samples was monitored at 260 nm from 35 to 95 °C with a heating rate of 1 °C/min. Tm values are the midpoints or the transition curves determined from the maximum of the first derivative. ΔTm values were calculated by subtracting the Tm of the free nucleic acid from the Tm of the sample. All ΔTm values reported in the study were measured in triplicate. The error in ΔTm was ±0.5 °C.

ct-DNA [2] = test: UV–vis spectra titration with ct-DNA (binding constant Kb); parameters: species or system calf; details: for Kb compared to that of mitonafide: mitonafide Kb 2.54 × 10^5
Method: The measurements were performed by adding aliquots of DMSO stock solution of the tested compounds to the buffer solution (pH 7.4, 20 mM, 50 mM NaCl, Tris–HCl buffer, DMSO content of the final solutions = 0.54–0.65%) to the final concentration 10 µM. The tested compounds were incubated for 5 min, with increasing concentrations ranging from 0 to 15 µM of ct-DNA at 37 °C. Then, the UV–vis absorption spectra between 300 and 500 nm were recorded using a GBC Cintra10 UV–VIS spectrometer equipped with a GBC Thermocell Peltier Power Supply with the use of a 1-cm-path-length cell. The binding constant was calculated according to the following equation[70]: A0/A−A0= εG/εH−G−εG+ εG/εH−G−εG × 1/Kb[DNA] where Kb is the binding constant; A0 and a are absorbances of the free tested compound and the apparent one; εG and εH–G are their coefficient, respectively; [DNA] is the concentration of DNA in base pairs. The slope to intercept ratio of the plot between A0/A − A0 and 1/[DNA] yielded the binding constant.

ct-DNA [3] = test: Circular dichroism (CD) measurements of ct-DNA; assay type: binding, calf; details: increasing concentration of conjugate, r = 0.1–0.5, cacodylate buffer pH 7.0
Method: The measurements were performed by adding aliquots of DMSO stock solution of the tested compounds to the buffer solution (pH 7.0, 20 mM, cacodylate buffer, DMSO content of the final solutions = 0.22–1.30%). Changes in the CD spectrum of ct-DNA upon the addition of compound were measured at different molar ratios r = [compound]/[ct-DNA]. CD spectra were recorded on a JASCO J-815 CD spectrometer with a JASCO PFD-425S Peltier thermostated cell holder (JASCO, Tokyo, Japan) by using a square quartz cuvette of path length 0.5 cm (0.5 ml) in the 230–400 nm region. The CD profiles reported were an average of three successive scans with a scan time of 200 nm per minute and an appropriately corrected baseline. Temperature was maintained at 20 °C during the experiment.

HepG2 [4] = test: In vitro cytotoxic activity, MTT assay; assay type: cell-based, human; details: concentration required to inhibit cell growth by 50%
Excerpt: The in vitro cytotoxic activity of the obtained carborane-1,8-naphthalimide conjugates was investigated by examining their cytotoxic effects using the MTT (3–(4,5-dimethylthiazol-2-yl)-2,5-diphenyltetrazolium bromide) dye assay[38]^,[39] against the human cancer cell line HepG2 established from hepatocellular carcinoma (for compounds 12–19 and 30–37) and against human lung fibroblasts (MRC-5) (for compounds 34–37). The IC50 values—the drug concentration (µM) required to inhibit cell growth by 50%—determined for the synthesised compounds are summarised in Table 2.
The cytotoxic properties of the synthesised compounds were evaluated using the human hepatocellular carcinoma cell line (HepG2) and human lung fibroblasts (MRC-5). The HepG2 and MRC-5 cell lines were purchased from American Type Culture Collection (ATCC, Manassas, VA, USA). The HepG2 cells were propagated in Eagle’s minimal essential medium (EMEM, ATCC, Manassas, VA, USA), supplemented with 10% inactivated foetal bovine serum (FBS, Life Technologies, Warsaw, Poland) and 100 units/ml penicillin G with […] streptomycin (Life Technologies, Warsaw, Poland). The cells were incubated at 37 °C in a humidified atmosphere containing 5% CO2. Upon reaching 80–90% confluency, the cells were harvested with 0.25% trypsin in 1 mM EDTA (Life Technologies, Warsaw, Poland) and transferred to 96-well microplates at 2 × 10^4 cells/well. After overnight incubation of cells at 37 °C in a humidified atmosphere containing 5% CO2, the culture medium was removed and replaced with a freshly prepared solution of compounds in the culture medium or medium itself as the control group. The stock solutions of each compound were prepared in DMSO at a concentration of 100 mM and were diluted with the growth medium supplemented with 10% FBS to ensure drug dissolution to obtain concentrations ranging from 0.1 to 1000 µM. Cytotoxicity was evaluated using the MTT assay. After incubation with the compounds, the cells were treated with MTT dye solution (5 mg/ml) for 2 h and lysed with a solvent solution containing DMF (45 ml), sodium dodecylsulfate (13.5 g), and distilled water (55 ml). After overnight incubation at 37 °C, optical density at 550 nm, with a reference wavelength of 670 nm, was measured in an ELISA reader (VarioskanLux, Thermo Scientific, Waltham, MA, USA). All determinations were carried out in triplicate. Results were calculated as the percentage of control group viability. The IC50 values of the compounds were calculated in an Excel add-in ED50V10.

ct-DNA [5] = tested on: ct-DNA; parameters: method as in PMID 33803403; details: unmodified mitonafide and pinafide; cited from earlier work
HepG2 [6] = tested on: HepG2; parameters: method as in PMID 31776032; details: footnote of Table 2, reference compounds; cited from earlier work
human topoisomerase IIα = target: human topoisomerase IIα; parameters: method as in PMID 35562989; details: earlier study of 4-carboranyl-1,8-naphthalimides; read-out: anti-Topo II activity IC50; cited from earlier work
HepG2 cells = tested on: HepG2 cells; parameters: method as in PMID 31776032; details: earlier N-imide derivatives; cited from earlier work

| Molecule | ΔTm ct-DNA (ct-DNA [1]) | Kb compared to that of mitonafide (ct-DNA [2]) | change in the CD spectra of ct-DNA (ct-DNA [3]) | IC50 (HepG2 [4]) | other results |
| --- | --- | --- | --- | --- | --- |
| 4-[(2-[3–(1,2-Dicarba-closo-dodecaborane-1-yl)propanamido]ethyl)amino]-3-nitro-N-[2-(N-pyrrolidinyl)ethyl]-1,8-naphthalimide [Compound 14] | 3.33 °C | similar | disturbed | 8.97 ± 1.13 µM | – |
| 4-[(2-[3–(1,2-Dicarba-closo-dodecaborane-1-yl)propanamido]ethyl)amino]-N-[2-(dimethylamino)ethyl]-3-nitro-1,8-naphthalimide [Compound 12] | 3.33 °C | similar | did not cause any appreciable change | 21.7 ± 0.95 µM | – |
| 4-[(2-[3–(1,7-Dicarba-closo-dodecaborane-1-yl)propanamido]ethyl)amino]-3-nitro-N-[2-(N-pyrrolidinyl)ethyl]-1,8-naphthalimide [Compound 15] | 5.00 °C | similar | disturbed | 9.23 ± 0.35 µM | – |
| 4-[(2-[3–(1,7-Dicarba-closo-dodecaborane-1-yl)propanamido]ethyl)amino]-N-[2-(dimethylamino)ethyl]-3-nitro-1,8-naphthalimide [Compound 13] | 3.67 °C | – | did not cause any appreciable change | 9.2 ± 0.68 µM | – |
| 4-[(2-[(1,2-Dicarba-closo-dodecaborane-1-yl)ethylamino]ethyl)amino]-3-nitro-N-[2-(N-pyrrolidinyl)ethyl]-1,8-naphthalimide [Compound 32] | 0.33 °C | approximately 1.5 fold | disturbed | 8.12 ± 0.88 µM | – |
| 4-[(2-[(1,2-Dicarba-closo-dodecaborane-1-yl)ethylamino]ethyl)amino]-N-[2-(dimethylamino)ethyl]-3-nitro-1,8-naphthalimide [Compound 30] | 3.33 °C | – | disturbed | 4.51 ± 0.66 µM | – |
| 4-[(2-[(1,7-Dicarba-closo-dodecaborane-1-yl)ethylamino]ethyl)amino]-3-nitro-N-[2-(N-pyrrolidinyl)ethyl]-1,8-naphthalimide [Compound 33] | 0.33 °C | – | did not cause any appreciable change | 20.6 ± 3.83 µM | changes in the absorbance on addition of ct-DNA (ct-DNA [2]; UV–vis, 1.25–15 µM ct-DNA, 10 µM compound): changes in the absorbance were not observed |
| 4-[(2-[(1,7-Dicarba-closo-dodecaborane-1-yl)ethylamino]ethyl)amino]-N-[2-(dimethylamino)ethyl]-3-nitro-1,8-naphthalimide [Compound 31] | 1.67 °C | similar | did not cause any appreciable change | 11.6 ± 0.62 µM | bathochromic effect (ct-DNA [2]; UV–vis, addition of 1.25–15 µM ct-DNA to 10 µM compound): 6 nm |
| 4-[(6-[3–(1,2-Dicarba-closo-dodecaborane-1-yl)propanamido]hexyl)amino]-3-nitro-N-[2-(N-pyrrolidinyl)ethyl]-1,8-naphthalimide [Compound 18] | – | approximately 1.5 fold | – | 4.79 ± 0.8 µM | – |
| 4-[(6-[3–(1,2-Dicarba-closo-dodecaborane-1-yl)propanamido]hexyl)amino]-N-[2-(dimethylamino)ethyl]-3-nitro-1,8-naphthalimide [Compound 16] | – | approximately 1.5 fold | – | 5.12 ± 0.87 µM | – |
| 4-[(6-[3–(1,7-Dicarba-closo-dodecaborane-1-yl)propanamido]hexyl)amino]-3-nitro-N-[2-(N-pyrrolidinyl)ethyl]-1,8-naphthalimide [Compound 19] | – | – | – | 5.86 ± 0.56 µM | – |
| 4-[(6-[3–(1,7-Dicarba-closo-dodecaborane-1-yl)propanamido]hexyl)amino]-N-[2-(dimethylamino)ethyl]-3-nitro-1,8-naphthalimide [Compound 17] | – | similar | – | 8.03 ± 1.25 µM | – |
| CN(C)CCN1C(=O)c2cccc3cc([N+](=O)[O-])cc(c23)C1=O [mitonafide] | – | – | – | – | ΔTm (ct-DNA [5]): 5.17 °C; IC50 (HepG2 [6]): < 1 µM; IC50 (human topoisomerase IIα): 5.13 µM |
| O=C1c2cccc3cc([N+](=O)[O-])cc(c23)C(=O)N1CCN1CCCC1 [pinafide] | – | – | – | – | ΔTm (ct-DNA [5]): 6.50 °C; IC50 (HepG2 [6]): 1.23 µM |
| N-[2-(N-pyrrolidinyl)ethyl]-4-[(2–(3–(1,2-dicarba-closo-dodecaborane-1-yl)propanamido)ethyl)amino]-1,8-naphthalimide | – | – | – | – | IC50 (human topoisomerase IIα): 2.81 µM |
| N-[2-(dimethylamino)ethyl]-4-{1-[3-(1,2-dicarba-closo-dodecaborane-1-yl)propyl]-1H-1,2,3-triazol-4-yl}-1,8-naphthalimide | – | – | – | – | IC50 (human topoisomerase IIα): 0.58 µM |
| N-[2–(3,3′-commo-bis(1,2-dicarba-3-cobalta(III)-closo-dodecaborate-1-yl)ethyl)]-1,8-naphthalimide | – | – | – | – | intracellular ROS production (fluorescence intensity) (HepG2 cells): approximately twofold increase |
| N-[3–(1,2-dicarba-closo-dodecaborane-1-yl)propyl]-1,8-naphthalimide | – | – | – | – | intracellular ROS production (fluorescence intensity) (HepG2 cells): approximately twofold increase |
| N-{[2–(3,3′-commo-bis(1,2-dicarba-3-cobalta(III)-closo-dodecaborate-1-yl)ethyl]-1′-aminoethyl)}-1,8-naphthalimide] | – | – | – | – | intracellular ROS production (fluorescence intensity) (HepG2 cells): approximately twofold increase |
